According to patent US8558016B2, “Polyphenol derivative and method for producing the same” (Kabaushiki Kaisha Riverson, priority 2009, dated 2013):

Tests used:
[1] = test system: PTP1B; assay: PTP1B expression inhibitory effect in 3T3-L1 adipocytes, Western blotting; format: cell-based; conditions: for PTP1B expression inhibitory effect: in words, no time or concentration stated
Method: (§1) 3T3-L1 adipocytes can be allowed to grow and maintained in a 5% CO2 environment in high-glucose DMEM containing 50 U/ml penicillin, 50 μg/ml streptomycin, and 10% FCS. The 3T3-L1 cells were subcultured in a dish of 3.5 cm in diameter until confluent and then sufficiently differentiated into adipocytes by culture for another 2 days in the presence of insulin (10 μg/ml), dexamethasone ([…]), and IBMX (3-isobutyl-1-methylxanthine) (0.5 mM). Teadenol A (10 μM) or DMSO (vehicle control) was added to the sufficiently differentiated 3T3-L1 adipocytes, and each culture supernatant was collected after 8, 24, 32, and 48 hours. The amount of adiponectin secreted was determined by Western blotting method.
Teadenol A (10 μM) or DMSO (vehicle control) was added to the sufficiently differentiated 3T3-L1 adipocytes. After culture for 8, 24, 32, and 48 hours, the cells were collected, and the amount of PTP1B […] and the amount of α-tubulin were determined by Western blotting method.

[2] = test system: 3T3-L1 adipocytes; assay: Adiponectin secretion promoting effect, Western blotting of culture supernatant; format: cell-based; conditions: for adiponectin secretion promoting effect: in words, no time or concentration stated
Method: as §1

[3] = Test of visceral fat and adiponectin functions (method not described); format: in vivo; conditions: in words

SMILES: C=C1C=C(C(=O)O)O[C@@H]2Cc3c(O)cc(O)cc3O[C@H]12 [Teadenol A, teadenol A]
- PTP1B expression inhibitory activity ([1]; 10 μM, 3T3-L1 adipocytes, statistically significant difference after 32 hours): effective
- adiponectin secretion promoting activity ([2]; 10 μM, 3T3-L1 adipocytes, statistically significant difference after 24 and 48 hours): effective
- adiponectin [3]: increasing adiponectin
- visceral fat [3]: decreasing visceral fat

SMILES: C=C1C=C(C(=O)O)O[C@@H]2Cc3c(O)cc(O)cc3O[C@@H]12 [Teadenol B, teadenol B]
- PTP1B expression inhibitory effect [1]: effective
- adiponectin secretion promoting effect [2]: effective

SMILES: C=C1C=C(C(=O)O)O[C@@H]2Cc3c(O)cc(O)cc3OC12 (some centres unmarked) [compound (1)]
- PTP1B expression inhibitory effect [1]: confirmed to have
- adiponectin secretion promoting effect [2]: confirmed to have
